# Calls of active or inactive are those of the source. The calls are words filed in the database; no cut-off is given here.
# Tested on: PC-12
# Assay: Induction of neurite outgrowth in NGF-induced rat PC12 cells assessed as neurite bearing cells at 5 to 10 uM cotreated with 20 ng/ml NGF incubated for 48 hrs by light microscopy
# Type: functional, cell-based
# Settings: not given
row,SMILES,Activity
1,CC(=O)OC[C@@]1(C)[C@H]2CCC(C)=C(C[C@H](OC(C)=O)C3=CCOC3=O)[C@]2(C)CC[C@H]1OC(C)=O,inactive

# Tested on: PC-12
# Assay: Induction of neurite outgrowth in rat PC12 cells assessed as neurite bearing cells in absence of 20 ng/ml NGF incubated for 48 hrs by light microscopy
# Type: functional, cell-based
# Settings: not given
row,SMILES,Activity
1,CC1=C(CCC2=CCOC2=O)[C@]2(C)CC[C@@H](O)[C@@](C)(CO)[C@H]2CC1,Active
2,C=C1CC[C@@H]2[C@](C)(CO[C@@H]3O[C@H](CO)[C@@H](O)[C@H](O)[C@H]3O)CCC[C@@]2(C)[C@@H]1CCC1=CCOC1=O [NEOANDROGRAPHOLIDE],Active

# Tested on: BV-2
# Assay: Antiinflammatory activity in mouse BV2 cells assessed as reduction in LPS-induced NO production incubated for 24 hrs by Griess method
# Type: functional, cell-based
# Settings: not given
row,SMILES,inhibition
1,CC(=O)OC[C@@]1(C)[C@H]2CCC(C)=C(C[C@H](OC(C)=O)C3=CCOC3=O)[C@]2(C)CC[C@H]1OC(C)=O,Dose-dependent effect

# Tested on: BV-2
# Assay: Neuroprotective activity against microglia-conditioned medium-induced cytotoxicity in rat PC12 cells exposed to conditioned medium derived from 24 hrs compound pre-treated mouse BV2 cells assessed as increase in cell viability at 5 to 20 uM by MTT assay
# Type: functional, cell-based
# Settings: not given
row,SMILES,Activity
1,CC(=O)OC[C@@]1(C)[C@H]2CCC(C)=C(C[C@H](OC(C)=O)C3=CCOC3=O)[C@]2(C)CC[C@H]1OC(C)=O,Active

# Tested on: PC-12
# Assay: Cytotoxicity against rat PC12 cells assessed as reduction in cell viability incubated for 48 hrs
# Type: cell-based
# Settings: pc-12, 48 h
row,SMILES,Activity
1,CC(=O)OC[C@@]1(C)[C@H]2CCC(C)=C(C[C@H](OC(C)=O)C3=CCOC3=O)[C@]2(C)CC[C@H]1OC(C)=O,Toxic

# Tested on: not listed separately
# Assay: Lipophilicity, log P of the compound
# Type: physicochemical
# Settings: octanol/water; read-out: logP
row,logP,SMILES
1,2.9,CC1=C(CCC2=CCOC2=O)[C@]2(C)CC[C@@H](O)[C@@](C)(CO)[C@H]2CC1
2,3.07,C=C1CC[C@@H]2[C@](C)(CO[C@@H]3O[C@H](CO)[C@@H](O)[C@H](O)[C@H]3O)CCC[C@@]2(C)[C@@H]1CCC1=CCOC1=O [NEOANDROGRAPHOLIDE]
3,2.96,CC(=O)OC[C@@]1(C)[C@H]2CCC(C)=C(C[C@H](OC(C)=O)C3=CCOC3=O)[C@]2(C)CC[C@H]1OC(C)=O

# Tested on: BV-2
# Assay: Neuroprotective activity against microglia-conditioned medium-induced cytotoxicity in rat PC12 cells co-cultred with mouse BV2 cells assessed as increase in cell viability at 5 to 20 uM incubated for 4 hrs by MTT assay
# Type: functional, cell-based
# Settings: not given
row,SMILES,Activity
1,CC(=O)OC[C@@]1(C)[C@H]2CCC(C)=C(C[C@H](OC(C)=O)C3=CCOC3=O)[C@]2(C)CC[C@H]1OC(C)=O,Active

# Tested on: BV-2
# Assay: Neuroprotective activity against microglia-conditioned medium-induced cytotoxicity in rat PC12 cells exposed to conditioned medium derived from mouse BV2 cells assessed as increase in cell viability at 5 to 20 uM by MTT assay
# Type: functional, cell-based
# Settings: not given
row,SMILES,Activity
1,CC(=O)OC[C@@]1(C)[C@H]2CCC(C)=C(C[C@H](OC(C)=O)C3=CCOC3=O)[C@]2(C)CC[C@H]1OC(C)=O,inactive

# Tested on: BV-2
# Assay: Cytotoxicity in mouse BV2 cells assessed as reduction in cell viability
# Type: cell-based
# Settings: not given
row,SMILES,Activity
1,CC1=C(CCC2=CCOC2=O)[C@]2(C)CC[C@@H](O)[C@@](C)(CO)[C@H]2CC1,Non-Toxic
2,C=C1CC[C@@H]2[C@](C)(CO[C@@H]3O[C@H](CO)[C@@H](O)[C@H](O)[C@H]3O)CCC[C@@]2(C)[C@@H]1CCC1=CCOC1=O [NEOANDROGRAPHOLIDE],Non-Toxic
3,CC(=O)OC[C@@]1(C)[C@H]2CCC(C)=C(C[C@H](OC(C)=O)C3=CCOC3=O)[C@]2(C)CC[C@H]1OC(C)=O,Non-Toxic

# Tested on: PC-12
# Assay: Induction of neurite outgrowth in NGF-induced rat PC12 cells assessed as neurite bearing cells at 20 uM cotreated with 20 ng/ml NGF incubated for 48 hrs by light microscopy
# Type: functional
# Settings: not given
row,SMILES,Activity
1,CC1=C(CCC2=CCOC2=O)[C@]2(C)CC[C@@H](O)[C@@](C)(CO)[C@H]2CC1,Active

# Tested on: BV-2
# Assay: Antiinflammatory activity in mouse BV2 cells assessed as reduction in LPS-induced NO production at 1 uM incubated for 24 hrs by Griess method relative to control
# Type: functional
# Settings: BV-2, 24 h
row,SMILES,inhibition at 1 µM [%]
1,CC(=O)OC[C@@]1(C)[C@H]2CCC(C)=C(C[C@H](OC(C)=O)C3=CCOC3=O)[C@]2(C)CC[C@H]1OC(C)=O,34.4

# Tested on: PC-12
# Assay: Induction of neurite outgrowth in NGF-induced rat PC12 cells assessed as neurite bearing cells at 20 uM cotreated with 20 ng/ml NGF incubated for 48 hrs by methylene blue staining based light microscopy
# Type: functional
# Settings: not given
row,SMILES,Activity [%]
1,CC1=C(CCC2=CCOC2=O)[C@]2(C)CC[C@@H](O)[C@@](C)(CO)[C@H]2CC1,31.2
2,C=C1CC[C@@H]2[C@](C)(CO[C@@H]3O[C@H](CO)[C@@H](O)[C@H](O)[C@H]3O)CCC[C@@]2(C)[C@@H]1CCC1=CCOC1=O [NEOANDROGRAPHOLIDE],21.5

# Tested on: BV-2
# Assay: Antiinflammatory activity in mouse BV2 cells assessed as reduction in LPS-induced NO production at 20 uM incubated for 24 hrs by Griess method
# Type: functional
# Settings: not given
row,SMILES,inhibition
1,CC1=C(CCC2=CCOC2=O)[C@]2(C)CC[C@@H](O)[C@@](C)(CO)[C@H]2CC1,inactive
2,C=C1CC[C@@H]2[C@](C)(CO[C@@H]3O[C@H](CO)[C@@H](O)[C@H](O)[C@H]3O)CCC[C@@]2(C)[C@@H]1CCC1=CCOC1=O [NEOANDROGRAPHOLIDE],inactive

# Same assay, conditions: BV-2, 24 h
row,SMILES,inhibition at 20 µM [%]
1,CC(=O)OC[C@@]1(C)[C@H]2CCC(C)=C(C[C@H](OC(C)=O)C3=CCOC3=O)[C@]2(C)CC[C@H]1OC(C)=O,95.7

# Tested on: PC-12
# Assay: Neuroprotective activity against H2O2-induced toxicity in rat PC12 cells assessed as increase in cell viability at 20 uM pretreated for 24 hrs followed by H2O2 challenge and measured after 24 hrs by MTT assay
# Type: functional, cell-based
# Settings: not given
row,SMILES,Activity
1,CC1=C(CCC2=CCOC2=O)[C@]2(C)CC[C@@H](O)[C@@](C)(CO)[C@H]2CC1,inactive
2,C=C1CC[C@@H]2[C@](C)(CO[C@@H]3O[C@H](CO)[C@@H](O)[C@H](O)[C@H]3O)CCC[C@@]2(C)[C@@H]1CCC1=CCOC1=O [NEOANDROGRAPHOLIDE],inactive
3,CC(=O)OC[C@@]1(C)[C@H]2CCC(C)=C(C[C@H](OC(C)=O)C3=CCOC3=O)[C@]2(C)CC[C@H]1OC(C)=O,Active

# Tested on: BV-2
# Assay: Antiinflammatory activity in LPS induced mouse BV2 cells assessed as reduction in iNOS expression at 20 uM incubated for 24 hrs by DAPI based fluorescence microscopic method
# Type: functional, cell-based
# Settings: not given
row,SMILES,Activity
1,CC(=O)OC[C@@]1(C)[C@H]2CCC(C)=C(C[C@H](OC(C)=O)C3=CCOC3=O)[C@]2(C)CC[C@H]1OC(C)=O,Active

# Tested on: BV-2
# Assay: Antiinflammatory activity in LPS induced mouse BV2 cells assessed as reduction in TNFalpha incubated for 6 hrs by ELISA method
# Type: functional, cell-based
# Settings: not given
row,SMILES,Activity
1,CC(=O)OC[C@@]1(C)[C@H]2CCC(C)=C(C[C@H](OC(C)=O)C3=CCOC3=O)[C@]2(C)CC[C@H]1OC(C)=O,Dose-dependent effect

# Tested on: PC-12
# Assay: Induction of neurite outgrowth in NGF-induced rat PC12 cells assessed as neurite bearing cells cotreated with 20 ng/ml NGF incubated for 48 hrs by light microscopy
# Type: functional, cell-based
# Settings: not given
row,SMILES,Activity
1,CC1=C(CCC2=CCOC2=O)[C@]2(C)CC[C@@H](O)[C@@](C)(CO)[C@H]2CC1,Dose-dependent effect
2,C=C1CC[C@@H]2[C@](C)(CO[C@@H]3O[C@H](CO)[C@@H](O)[C@H](O)[C@H]3O)CCC[C@@]2(C)[C@@H]1CCC1=CCOC1=O [NEOANDROGRAPHOLIDE],Dose-dependent effect

# Tested on: BV-2
# Assay: Antiinflammatory activity in LPS induced mouse BV2 cells assessed as reduction in IL-6 incubated for 24 hrs by ELISA method
# Type: functional, cell-based
# Settings: not given
row,SMILES,Activity
1,CC(=O)OC[C@@]1(C)[C@H]2CCC(C)=C(C[C@H](OC(C)=O)C3=CCOC3=O)[C@]2(C)CC[C@H]1OC(C)=O,Dose-dependent effect

# Tested on: BV-2
# Assay: Antiinflammatory activity in LPS-induced mouse BV2 cells assessed as reduction in iNOS mRNA expression at 20 uM incubated for 24 hrs by RT-PCR analysis method
# Type: functional, cell-based
# Settings: not given
row,SMILES,Activity
1,CC(=O)OC[C@@]1(C)[C@H]2CCC(C)=C(C[C@H](OC(C)=O)C3=CCOC3=O)[C@]2(C)CC[C@H]1OC(C)=O,Active

# Tested on: PC-12
# Assay: Neuroprotective activity against 6-OHDA -induced toxicity in rat PC12 cells assessed as increase in cell viability at 20 uM pretreated for 24 hrs followed by 6-OHDA challenge and measured after 24 hrs by MTT assay
# Type: functional, cell-based
# Settings: not given
row,SMILES,Activity
1,CC1=C(CCC2=CCOC2=O)[C@]2(C)CC[C@@H](O)[C@@](C)(CO)[C@H]2CC1,inactive
2,C=C1CC[C@@H]2[C@](C)(CO[C@@H]3O[C@H](CO)[C@@H](O)[C@H](O)[C@H]3O)CCC[C@@]2(C)[C@@H]1CCC1=CCOC1=O [NEOANDROGRAPHOLIDE],inactive
3,CC(=O)OC[C@@]1(C)[C@H]2CCC(C)=C(C[C@H](OC(C)=O)C3=CCOC3=O)[C@]2(C)CC[C@H]1OC(C)=O,Active

# From ChEMBL document CHEMBL4340541, “Synthesis of andrographolide analogues and their neuroprotection and neurite outgrowth-promoting activities” (Bioorg Med Chem, 2019)
